This is an account of results in US20090312380A1, “NOVEL COMPOSITIONS AND METHODS” (priority 2006, published 2009).

Holding throughout (assay type): physicochemical
The nature of data set [1]: BET nitrogen adsorption analysis, total specific surface area. The note with it: for Specific Surface Area (nitrogen): BET nitrogen adsorption model, 77.3K. The source says:
The D values represent particle size medians from the detected particle size distribution curves. D(v, x) means that 100x % of particles are smaller than the corresponding D value, and 100-100x % of particles are larger. The samples were also subjected to the Brunauer-Emmett-Teller (BET)-nitrogen adsorption analysis to determine the total surface area of the samples as follows:
Approximately 0.2-0.5 g of material (accurately weighed) was loaded into a surface area analyser glass tube fitted with a glass rod in order to minimise the overall free space. The sample was then outgased under vacuum at 30° C. for several hours. Upon completion of the outgas step, the sample tube was removed from the analyser and backfilled with helium to avoid refilling with air from the surrounding environment. The sample tube was reweighed in order to calculate the amount of dry sample used during the analysis step. The analyser tube was then loaded into the surface area analyser, and free space analysis was then conducted in order to account for the free volume in the tube and thus accurately measure the quantity of gas adsorbed directly on the powder surface. Nitrogen gas adsorption measurement was executed in a liquid nitrogen filled dewar at 77.3K. BET multipoint surface area determination was performed in the partial pressure range p/po=0.1-0.3 with 5 data points. Specific surface area calculation was performed by linear regression analysis of data according to the BET equation.

Data set [2] in a line: Gravimetric vapour sorption (GVS), water vapour adsorption. The note with it: for water vapour adsorption (comparison): GVS, compared with samples B or C. The source says: GVS is a method traditionally used to detect quantitative weight changes of samples as a function of the relative humidity (RH). Samples, which can comprise solid-state samples such as powders and tablets, but also liquids, are exposed to a defined humidity profile. The corresponding weight change is continuously recorded via an ultra-microbalance. Defined humidity levels are established by mixing defined ratios of a dry carrier gas, usually nitrogen, and a wet stream, typically a water vapour saturated carrier gas such as nitrogen. The RH level is then controlled by the ratio of the dry:wet stream. To maintain isothermal conditions, the GVS apparatus which comprises a microbalance and humidification unit is set up in an incubator system held at a defined temperature. The primary information obtained by a typical commercial GVS system is: • Kinetics of water uptake: • The kinetic of the water uptake is a mass vs. time plot at constant RH level. The equilibrium between sample and humidity can be determined from this information. • Sorption isotherms: • The equilibrium weight changes at each humidity are related to the dry mass of the sample (i.e. the equilibrium mass at 0% RH). The equilibrium weight changes as a function of the RH level are the corresponding sorption isotherms of the sample. Typical sorption isotherms comprise adsorption, i.e. increasing RH levels, and desorption, i.e. decreasing RH levels, cycles. Typically, RH ranges from 0-95% RH are covered. For this purpose, water vapour sorption experiments can be carried out as follows: • Adsorption segment range 0-98% RH, preferably 0-50% RH. • Adsorption segment RH-step size of 10% RH or smaller, preferably 5% RH or 2.5% RH. • Desorption segment range 98-0% RH, preferably 50-0% RH. • Desorption segment RH-step size of 10% RH or smaller, preferably 5% RH or 2.5% RH. • Equilibration times at each humidity of 15 minutes and longer, preferably 30 minutes and longer, most preferably 60 minutes and longer. The important factor here is that all water vapour sorption uptakes used for further evaluation do reach equilibrium, i.e. that the weight change over time within each RH-step kinetic should be very small at the end of each RH segment. For these purposes, typical equilibration times are given. • Isothermal temperature in the range 5-50° C., preferably 25-37° C., most preferably about 25° C. • Sample masses of 10-50 mg, preferably 15-50 mg. […] Compression/compaction of the sample should be avoided in order to ensure that there are enough voids in any powder sample to allow the water vapour to penetrate. From these experiments, the primary information obtained is the sorption kinetic (mass vs. time at constant humidity) as well as the conventional sorption isotherm (weight change related to dry value vs. RH level), as previously described. The four samples A-D of irbesartan were also subjected to GVS to assess the extent of any water adsorption. […] The water adsorption results obtained from the GVS analysis are illustrated in Table 3.

Data set [3] in a line: Water surface area from GVS data, Excess Surface Work (ESW) model. The note with it: for Water Surface Area (WSA): ESW adsorption model, GVS adsorption runs. The method, then:
The xy-data pairs used for the sorption isotherms (mRH, RH-levels) can also be used for a different approach to describe the sorption isotherm. Here, the change in chemical potential Δμ for the sorption process at each relative humidity (and at temperature T) is calculated:
with: R=Universal Gas Constant • T=Temperature • p=water partial pressure at humidity RH and temperature T • ps=water vapour saturation pressure at temperature T
Based on the change in chemical potential Δμ, an energetic term φ can be calculated for each relative humidity, termed excess surface work (ESW) according to J. Adolphs and M. J. Setzer, Journal of Colloid and Interface Science, vol. 180, pp. 70-76, 1996:
with: Φ=excess surface work • Δμ=change in chemical potential • nads=number of moles of water adsorbed in equilibrium at humidity RH
A plot of Φ/RT vs. nads can then be generated, to allow the value of nads at the minimum value of Φ/RT to be deduced. This value of nads corresponds to nmono.
The calculated monolayer coverage nmono obtained from the application of the gas sorption models to GVS data can be re-calculated to water surface area Awater, taking into account the mean cross sectional area aH2O occupied by one water molecule upon adsorption:
with: Awater=water surface area [m^2/g] • aH2O mean cross sectional area of one water molecule adsorbed 10^−19 m^2/molecule • nmono=apparent amount adsorbed in the monolayer [mol] • NL=Lochschmidt number=6×10^23 molecules/mol • mdry (sample)=dry mass of sample [g]
Likewise, the determination of the ESW water surface area is illustrated for sample A as follows.
A plot of Φ/RT versus the change in mass for sample A was then generated (see FIG. 3). From this, it could be deduced that the minimum value of Φ/RT corresponded to a change in mass of 0.0369 mg, the apparent monolayer amount. This is turn equated to a WSA of 6.65 m^2/g, using equation (A4) above, wherein mdry=18.57 mg.

Turning to `CCCCC1=NC2(CCCC2)C(=O)N1Cc1ccc(-c2ccccc2-c2nnn[nH]2)cc1` [Sample A, irbesartan], in data set [1], the “Specific Surface Area (nitrogen)” value worked out at 5.17 m^2/g. In addition, the “Water Adsorption” value was found to be 0.06 wt % in data set [2] (5 % RH); 0.09 wt % in data set [2] (10 % RH); 0.12 wt % in data set [2] (15 % RH); 0.14 wt % in data set [2] (20 % RH); 0.17 wt % in data set [2] (25 % RH); 0.20 wt % in data set [2] (30 % RH). The “Water Adsorption” value in data set [2] (35 % RH) turned out to be 0.22 wt %; in data set [2] (40 % RH), 0.24 wt %; in data set [2] (50 % RH), 0.29 wt %; in data set [2] (60 % RH) it was 0.34 wt %; in data set [2] (70 % RH), 0.39 wt %; in data set [2] (80 % RH), 0.44 wt %. Moreover, the “Water Adsorption” value in data set [2] (90 % RH) worked out at 0.52 wt %. The “water vapour adsorption (comparison)” value in data set [2] is listed as “greater water vapour adsorption”. The “Rel. adsorbed amount n” value in data set [2] (RH 0.33 %) amounted to 0.0258 wt %; in data set [2] (RH 4.98 %), 0.0592 wt %; in data set [2] (RH 10.01 %) it was 0.0894 wt %; in data set [2] (RH 15.00 %) it was 0.1179 wt %; in data set [2] (RH 19.99 %), 0.1427 wt %; in data set [2] (RH 25.02 %), 0.1723 wt %. For the same compound, the “Rel. adsorbed amount n” value is on record as 0.1987 wt % in data set [2] (RH 30.00 %); 0.2207 wt % in data set [2] (RH 34.98 %); 0.2439 wt % in data set [2] (RH 40.02 %); 0.2902 wt % in data set [2] (RH 49.98 %); 0.3392 wt % in data set [2] (RH 60.00 %); 0.3855 wt % in data set [2] (RH 70.02 %). Moreover, the figures for the “Rel. adsorbed amount n” value in data set [2] (RH 79.99 %), in data set [2] (RH 90.01 %) and in data set [2] (RH 93.03 %) were 0.4372 wt %, 0.5152 wt % and 0.5233 wt %, respectively. The “Abs. adsorbed amount n” value in data set [2] (RH 4.98 %) came to 0.0110 mg; in data set [2] (RH 10.01 %) it was 0.0166 mg; in data set [2] (RH 15.00 %), 0.0219 mg; in data set [2] (RH 19.99 %), 0.0265 mg; in data set [2] (RH 25.02 %), 0.0320 mg; in data set [2] (RH 30.00 %) it was 0.0369 mg. Moreover, the entries for the “Water Surface Area (WSA)” value in data set [3] and in data set [3] (listed as sample A) were 6.7 m^2/g and 6.65 m^2/g, respectively. Further, the “apparent monolayer amount (change in mass at minimum of Φ/RT)” value in data set [3] (ESW model, mdry=18.57 mg) amounted to 0.0369 mg.
With `CCCCC1=NC2(CCCC2)C(=O)N1Cc1ccc(-c2ccccc2-c2nnn[nH]2)cc1` [Sample B, irbesartan], in data set [1] (BET nitrogen adsorption), the “specific surface area (ranking among samples A-D)” value was “greatest specific surface area”. For the same compound, the “Specific Surface Area (nitrogen)” value in data set [1] was found to be 6.16 m^2/g. The “Water Adsorption” value in data set [2] (5 % RH) stood at 0.03 wt %; in data set [2] (10 % RH) it was 0.04 wt %; in data set [2] (15 % RH), 0.06 wt %; in data set [2] (20 % RH), 0.07 wt %; in data set [2] (25 % RH) it was 0.09 wt %; in data set [2] (30 % RH), 0.10 wt %. Besides, the “Water Adsorption” value stood at 0.11 wt % in data set [2] (35 % RH); 0.13 wt % in data set [2] (40 % RH); 0.15 wt % in data set [2] (50 % RH); 0.18 wt % in data set [2] (60 % RH); 0.20 wt % in data set [2] (70 % RH); 0.23 wt % in data set [2] (80 % RH). For the same compound, the “Water Adsorption” value in data set [2] (90 % RH) is listed as 0.28 wt %. Moreover, the “Water Surface Area (WSA)” value in data set [3] came out at 3.0 m^2/g.
`CCCCC1=NC2(CCCC2)C(=O)N1Cc1ccc(-c2ccccc2-c2nnn[nH]2)cc1` [Sample C, irbesartan]: in data set [1], the “Specific Surface Area (nitrogen)” value is 3.16 m^2/g. For the same compound, the “Water Adsorption” value in data set [2] (5 % RH) came out at 0.04 wt %; in data set [2] (10 % RH), 0.07 wt %; in data set [2] (15 % RH), 0.08 wt %; in data set [2] (20 % RH), 0.09 wt %; in data set [2] (25 % RH) it was 0.11 wt %; in data set [2] (30 % RH) it was 0.13 wt %. The “Water Adsorption” value is listed as 0.14 wt % in data set [2] (35 % RH); 0.15 wt % in data set [2] (40 % RH); 0.18 wt % in data set [2] (50 % RH); 0.21 wt % in data set [2] (60 % RH); 0.23 wt % in data set [2] (70 % RH); 0.27 wt % in data set [2] (80 % RH). Also, in data set [2] (90 % RH), the “Water Adsorption” value came out at 0.31 wt %. In data set [3], the “Water Surface Area (WSA)” value is reported as 4.3 m^2/g.
For `CCCCC1=NC2(CCCC2)C(=O)N1Cc1ccc(-c2ccccc2-c2nnn[nH]2)cc1` [Sample D, irbesartan], the “Specific Surface Area (nitrogen)” value in data set [1] was 4.29 m^2/g. Moreover, the “Water Adsorption” value in data set [2] (5 % RH) was found to be 0.07 wt %; in data set [2] (10 % RH) it was 0.10 wt %; in data set [2] (15 % RH), 0.13 wt %; in data set [2] (20 % RH), 0.16 wt %; in data set [2] (25 % RH) it was 0.19 wt %; in data set [2] (35 % RH) it was 0.23 wt %. The “Water Adsorption” value worked out at 0.26 wt % in data set [2] (40 % RH); 0.33 wt % in data set [2] (50 % RH); 0.39 wt % in data set [2] (60 % RH); 0.46 wt % in data set [2] (70 % RH); 0.52 wt % in data set [2] (80 % RH); 0.63 wt % in data set [2] (90 % RH). Further, the “water vapour adsorption (comparison)” value in data set [2] is “greater water vapour adsorption”. Also, the “Water Surface Area (WSA)” value in data set [3] was found to be 6.5 m^2/g.
